Measured values from EP0522502A1, “Inhibitors of sucrase activity from tea” (MITSUI NORIN CO., LTD., priority 1991, dated 1993).

Tests used:
Sucrase = molecular target: T1, Sucrase (Rattus norvegicus, UniProt P23739); assay: Sucrase activity inhibition (Dahlquist enzyme preparation, Bernfeld sugar determination); assay type: biochemical, Wistar rats; details: for Inhibition (%): final concentration of 5x10⁻⁴ M, substrate 60mM sucrose solution, 37 °C for 15 minutes, control (distilled water) = 100% activity; for sucrase activity inhibiting capacity: verbal summary of Table 1, 5x10⁻⁴ M
T1 construct: Sucrase was prepared from the mucous membrane of the small intestines of Wistar rats; from tissue; host or cells: mucous membrane of the small intestine of Wistar rats
T1 sequence (P23739 whole entry): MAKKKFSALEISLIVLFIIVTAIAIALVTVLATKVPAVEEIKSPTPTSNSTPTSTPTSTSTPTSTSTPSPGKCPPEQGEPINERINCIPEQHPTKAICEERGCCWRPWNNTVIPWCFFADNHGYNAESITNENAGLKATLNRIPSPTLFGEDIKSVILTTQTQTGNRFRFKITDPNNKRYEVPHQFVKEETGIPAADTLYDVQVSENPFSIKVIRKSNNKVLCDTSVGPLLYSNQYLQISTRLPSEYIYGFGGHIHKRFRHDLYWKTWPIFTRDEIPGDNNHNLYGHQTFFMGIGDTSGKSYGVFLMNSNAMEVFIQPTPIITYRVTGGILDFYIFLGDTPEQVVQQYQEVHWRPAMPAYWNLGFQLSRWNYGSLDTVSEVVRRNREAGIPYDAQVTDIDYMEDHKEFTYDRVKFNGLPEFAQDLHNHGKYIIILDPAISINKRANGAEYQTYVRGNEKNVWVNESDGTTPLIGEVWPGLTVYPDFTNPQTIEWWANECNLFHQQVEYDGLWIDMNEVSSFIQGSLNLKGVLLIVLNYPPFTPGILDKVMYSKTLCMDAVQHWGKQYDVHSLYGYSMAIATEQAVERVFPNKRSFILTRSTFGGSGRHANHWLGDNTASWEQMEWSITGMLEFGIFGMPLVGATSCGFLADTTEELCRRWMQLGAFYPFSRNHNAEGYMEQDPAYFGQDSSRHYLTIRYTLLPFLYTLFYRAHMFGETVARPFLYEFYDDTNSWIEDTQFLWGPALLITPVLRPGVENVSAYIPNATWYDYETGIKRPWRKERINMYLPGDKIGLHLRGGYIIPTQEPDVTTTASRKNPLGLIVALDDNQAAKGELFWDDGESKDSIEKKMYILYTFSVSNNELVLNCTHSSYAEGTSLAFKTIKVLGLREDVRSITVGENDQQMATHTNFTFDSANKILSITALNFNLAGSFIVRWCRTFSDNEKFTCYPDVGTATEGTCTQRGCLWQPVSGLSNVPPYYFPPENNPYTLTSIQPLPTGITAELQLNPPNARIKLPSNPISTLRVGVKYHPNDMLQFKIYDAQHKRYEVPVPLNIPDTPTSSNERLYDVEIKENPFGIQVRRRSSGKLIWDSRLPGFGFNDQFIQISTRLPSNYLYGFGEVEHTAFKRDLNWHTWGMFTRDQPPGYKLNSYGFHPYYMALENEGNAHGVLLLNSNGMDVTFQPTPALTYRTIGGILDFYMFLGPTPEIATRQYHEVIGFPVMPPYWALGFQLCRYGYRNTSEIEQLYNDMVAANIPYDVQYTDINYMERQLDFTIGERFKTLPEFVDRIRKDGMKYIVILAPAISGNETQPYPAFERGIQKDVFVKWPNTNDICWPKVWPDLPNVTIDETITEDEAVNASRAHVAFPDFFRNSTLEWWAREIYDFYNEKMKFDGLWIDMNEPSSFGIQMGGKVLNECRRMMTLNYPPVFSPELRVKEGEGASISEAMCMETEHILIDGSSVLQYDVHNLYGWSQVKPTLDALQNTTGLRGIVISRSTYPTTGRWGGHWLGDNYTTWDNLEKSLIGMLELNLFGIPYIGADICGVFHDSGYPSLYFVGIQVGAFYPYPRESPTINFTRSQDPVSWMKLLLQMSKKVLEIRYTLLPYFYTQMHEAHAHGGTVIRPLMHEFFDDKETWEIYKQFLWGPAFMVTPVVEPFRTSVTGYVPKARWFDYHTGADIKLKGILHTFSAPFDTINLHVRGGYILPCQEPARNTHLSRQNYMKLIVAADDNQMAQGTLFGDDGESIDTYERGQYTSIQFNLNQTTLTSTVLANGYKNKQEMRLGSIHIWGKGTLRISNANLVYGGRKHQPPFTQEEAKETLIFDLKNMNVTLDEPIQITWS
Experimental: The value thus measured was converted into the amount of decomposed sucrose, and the reaction speed was calculated using a standard method. The reaction speed of the control case (where distilled water was added instead of the sample solution) was also obtained in the same manner. Sucrase activity in the control case was calculated to be 100%. The percentage inhibition of the samples, each at a final concentration of 5x10⁻⁴ M, were obtained.

male ICR mice = assay: Acute toxicity test (LD50 by Van der Waerden method); assay type: in vivo; details: intraabdominal administration
Experimental: An acute toxicity test of the sucrase activity inhibitor of the present invention was carried out using male ICR mice. LD₅₀ was calculated by the Van der Waerden method.

Inhibition (%) (Sucrase) | sucrase activity inhibiting capacity (Sucrase) | SMILES | LD₅₀(reliable limit) (male ICR mice)
59.5% | – | O=C(O[C@@H]1Cc2c(O)cc(O)cc2O[C@@H]1c1cc(O)c(O)c2c(=O)c(O)cc([C@H]3Oc4cc(O)cc(O)c4C[C@H]3O)cc12)c1cc(O)c(O)c(O)c1 [Theaflavin Monogallate B] | –
45.9% | – | O=C(O[C@@H]1Cc2c(O)cc(O)cc2O[C@@H]1c1cc(O)c(=O)c2c(O)c(O)cc([C@H]3Oc4cc(O)cc(O)c4C[C@H]3O)c2c1)c1cc(O)c(O)c(O)c1 [Theaflavin Monogallate A] | –
6.8% | only slight | O=c1c(O)cc([C@H]2Oc3cc(O)cc(O)c3C[C@H]2O)cc2c([C@H]3Oc4cc(O)cc(O)c4C[C@H]3O)cc(O)c(O)c12 [Free Theaflavin] | –
14.7% | only slight | Oc1cc(O)c2c(c1)O[C@H](c1ccc(O)c(O)c1)[C@H](O)C2 [Epicatechin, (-) Epicatechin] | –
6.7% | – | O=C(O)c1cc(O)c(O)c(O)c1 [Gallic Acid, reference compound] | –
13.7% | – | Oc1cc(O)c2c(c1)O[C@H](c1ccc(O)c(O)c1)[C@@H](O)C2 [(+)Catechin, reference compound] | –
95.9% | – | O=C(O[C@@H]1Cc2c(O)cc(O)cc2O[C@@H]1c1cc(O)c(=O)c2c(O)c(O)cc([C@H]3Oc4cc(O)cc(O)c4C[C@H]3OC(=O)c3cc(O)c(O)c(O)c3)c2c1)c1cc(O)c(O)c(O)c1 [Theaflavin Digallate] | –

SMILES | Inhibition (%) (Sucrase) | sucrase activity inhibiting capacity (Sucrase) | LD₅₀(reliable limit) (male ICR mice)
O=C(O[C@@H]1Cc2c(O)cc(O)cc2O[C@@H]1c1ccc(O)c(O)c1)c1cc(O)c(O)c(O)c1 [Epicatechin Gallate, (-) Epicatechin Gallate] | 62.5% | – | –
Oc1cc(O)c2c(c1)O[C@H](c1cc(O)c(O)c(O)c1)[C@H](O)C2 [Epigallocatechin, (-) Epigallocatechin] | 17.3% | only slight | –
O=C(O[C@@H]1Cc2c(O)cc(O)cc2O[C@@H]1c1cc(O)c(O)c(O)c1)c1cc(O)c(O)c(O)c1 [Epigallocatechin Gallate, (-) Epigallocatechin Gallate] | 78.8% | – | 150 mg/kg
